What was measured:
[1] = tested on: ovarian cancer cell; conditions: in vitro study; cited from earlier work
[2] = tested on: A2780 epithelial ovarian cancer cells; test: RNA sequencing and differential gene analysis of chip-derived tumors; type: cell-based, human; conditions: RNA-seq of chip-derived tumors
Method: Validation of cancer cell-platelet-drug crosstalk within OTME-Chip with next generation RNA-sequencing. It was recently shown that a collaboration of organ-chip technology with RNA-seq analysis is a powerful tool to validate preclinical studies and derive unbiased clinical predictions. Therefore, to solidify insights into the platelet-tumor signaling nexus and the therapeutic effect of Revacept, transcriptomic profiling was performed of different chip-derived tumors through RNA sequencing. Through RNA sequencing and differential gene analysis, expression of 12452 genes in the OTME-Chip relative to Control-Chip was detected. Similarly, expression of 5566, 6909 and 3821 genes in the Cx-OTME-Chip, CxRx-OTME-Chip and KO-OTME-Chip respectively relative to Control-Chip was detected. […]
RNA sequencing and analysis. […] Isolated mRNA samples were then analyzed using the NextSeq 500 platform (Illumina) and sample preparation was performed using TruSeqRNA sample preparation with paired-end read length of 2×75 bases (Molecular Genomics Workspace, Texas A&M University, College Station, TX). Then HISAT2 was used to splice align the reads to latest ENSEMBL-release-102 human genome/transcriptome (GRCh38.p13). […] Differentially expressed genes were then evaluated for all groups using DESeq2 package in R®. […]

[3] = tested on: growth factors (PDGF, VEGF, and TGFβ) and cytokines (IL-8, MMP9, and IL-6); test: Growth factors and cytokines in OTME-Chip tumor chamber effluents (multiplex); type: cell-based, human; conditions: Revacept 40 μg/mL, cisplatin 6 μg/mL
Method: (§1) Drugs. Cisplatin (Fisher Scientific, USA) and Revacept (Advancecor GamBH, Germany) were dissolved in DMSO and PBS/4% Mannitol/1% Sucrose respectively to prepare master stocks (1 mg/mL). These were further diluted in RMPI-1640 media to obtain respective working concentrations of cisplatin (6 μg mL^−1) and Revacept (40 μg mL^−1). They were perfused into the chip tumor chamber individually or in combination in presence or absence of extravasated platelets.
Growth factors and cytokines. Growth factors and cytokines present in OTME-Chip tumor chamber media effluents were measured using multiplex (xMAP) magnetic bead-based technology provided by Millipore. Media effluents collected from tumor chamber during different time points were analyzed for cytokines and growth factors using MILLIPLEX® MAP Human cytokine/chemokine magnetic bead panel kit (Millipore, CAS-HCYTOMAG-60K) by following previously established protocols. Assays were run in a pre-calibrated Luminex MAPGPIX reader. The mean fluorescent intensity (MFI) of the magnetic beads correlating with the concentration (pg/mL) of respective cytokines and growth factors was calculated using xPONENT 4.2 software and data analysis was done with Milliplex Analyst 5.1 software (Millipore). The concentration of cytokines obtained in each sample was normalized with respect to controls and the assays were run in triplicate. […]

[4] = tested on: metastasis and cell proliferation genes; test: Transcriptional analysis (qRT-PCR) of cancer cells from OTME-Chip; type: cell-based, human; conditions: cancer cells obtained from the chips, over time; Revacept 40 μg/mL, cisplatin 6 μg/mL
Method: as §1
Quantitative real-time PCR. Cancer cell total RNA was isolated using the Arcturus PicoPure RNA Isolation Kit specifically (Thermofisher Scientific, CAS-KIT0214) designed to recover high-quality RNA consistently from fewer cells. Cells isolated from the Chip were washed in prescribed in buffer (0.9 mL of 1×PBS/10% BSA; 0.1 mL of 0.5 M EDTA) and total cellular RNA was isolated by using the manufacturer's protocol. […] The cDNA prepared was further used for the subsequent quantitative qRT-PCR reactions using SyBR green master mix (Applied Biosystems™ SYBR™ Green select PCR Master Mix) and gene specific primers. […] Gene expression was analyzed by quantifying the relative fold changes in mRNA levels of individual genes using comparative Cycle Threshold (CT)/ACT method.

[5] = tested on: A2780 epithelial ovarian cancer cells; test: Cancer cell proliferation assay (Ki67) in OTME-Chip; type: cell-based, human; conditions: OTME-Chip with extravasated platelets; Revacept 40 μg/mL, cisplatin 6 μg/mL
Method: as §1
Cancer cell proliferation assay. Isolated cancer cells were immunostained with monoclonal anti-Ki67 antibody-Alexa Fluor488 conjugate (Abcam). The fluorescence intensity was then measured with a plate reader using excitation/emission wavelengths of 488/519 nm. Platelet free cancer cells obtained from other chips during similar time points were kept as control. Proliferation rate was measured as a percentage ratio of fluorescent intensities of experimental and control cells.

[6] = tested on: A2780 epithelial ovarian cancer cells; test: Cancer cell ECM invasion in OTME-Chip (A2780); type: cell-based, human; conditions: OTME-Chip with extravasated platelets, analyzed for three days; Revacept 40 μg/mL, cisplatin 6 μg/mL
Description: OTME-Chip predicts that pharmaceutical inhibition of GPVI arrests metastasis and supports chemotherapy. The potential consequences of pharmaceutical targeting of GPVI on platelets in cancer were then investigated. There are currently no FDA-approved anti-GPVI drugs in the market. However, Revacept is an inhibitor that has been successfully evaluated against collagen-mediated platelet adhesion in phase I clinical trials of atherosclerosis and stroke. Revacept inhibited the platelet GPVI and tumor galectin-3 interaction in a colon carcinoma cell line. This drug is a fusion protein consisting of the Fc part of human IgG, a short hinge region, a specific linker sequence, and the extracellular part of human platelet GPVI with a molecular mass of 150 kDa. […] Thereafter, these chips were analyzed for three days (FIG. 7). […]
Cell invasion. […] Invasion dynamics of live stained cancer cells (green) into the Chip ECM chamber hydrogel was visualized using fluorescence microscopy (Zeiss Axio Observer; LD Plan Neofluar 10×, NA 0.4). […] Images were analyzed and processed using software ZEN 2.3 lite (ZEISS). […] The ECM invasion of cancer cells was calculated as the ratio of area occupied by invaded cancer cells in ECM chamber vs. the total area of ECM chamber.

[7] = tested on: A2780 epithelial ovarian cancer cells; test: Cell cycle analysis of cancer cells from OTME-Chip; type: cell-based, human; conditions: OTME-Chip with extravasated platelets, compared to untreated controls; Revacept 40 μg/mL, cisplatin 6 μg/mL
Method: as §1
Cell cycle analysis. Cancer cells isolated via Accutase™ treatment from the chip were fixed in 70% ethanol at […] for 6 hr and permeabilized. Cells were then incubated with 100 μg mL^−1 Propidium Iodide (PI) (Sigma-Aldrich), and 50 μg mL^−1 ribonuclease A in the dark for 30 min at 37° C. Flow cytometry was performed on a BD Accuri C6 flow cytometer (BD Biosciences, USA) and cell cycle analysis was done using CellQuest Pro software.

Row | Structure (SMILES) | platelet-induced ovarian cancer cell invasion [1] | expression of genes of signaling pathways (NFκB, TGFβ/Smad, Hippo, MAPK, mTOR, Notch, PI3-Akt, Wnt), volcano plots [2] | expression of these pathways, heatmaps of expression profiles ([2]; different chip conditions) | concentration of growth factors (PDGF, VEGF, TGFβ) and cytokines (IL-8, MMP9, IL-6) [3] | platelet-induced upregulation of metastasis and cell proliferation genes [4] | proliferation rate of the cancer cells [5] | ECM invasion of cancer cells / tumor invasiveness [6] | G2/M phase in cancer cells [7]
1 | CC(=O)Oc1ccccc1C(=O)O [aspirin, acetylsalicylic acid] | attenuated |  |  |  |  |  |  | 
2 | N.N.[Cl][Pt][Cl] [cisplatin, reference compound] |  | reduced | downregulated | modest effect | altered overtime modestly | modest effect | modest effect | modest effect

Reference: patent US20240327768A1, “MICROFLUIDIC DEVICE MIMICKING TUMOR MICROENVIRONMENT” (The Texas A&M University System, priority 2021, published 2024)
